As a reminder, the IC50 is the concentration that inhibits the measured activity by half. By GI50 is commonly meant the concentration that inhibits growth by half.

Assay [1] addresses CDK-2 enzyme, complexed with cyclin A (Homo sapiens, UniProt P24941). The experiment in a line: CDK2 enzyme inhibition assay (33P phosphorylation of peptide […], filter plate). It is filed as biochemical. The conditions noted are these: CDK-2/cyclin A, 0.1 mM ATP, 40 min at 30° C. The method, boiled down:
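Cyclin A–complexed CDK2 (0.4 U/ml) incubated with inhibitor, 0.03 mM peptide, 0.1 mM ATP plus 33P-γ-ATP in HEPES pH 7.5, 7.5 mM Mg acetate, 0.1 mg/ml BSA, 40 min at 30 °C. Stopped with phosphoric acid; phosphorylated peptide captured on filter plates and counted by scintillation.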

The target in the next assay is T1, PDK1 enzyme (Homo sapiens, UniProt O15530).
T1 sequence (O15530 1-556): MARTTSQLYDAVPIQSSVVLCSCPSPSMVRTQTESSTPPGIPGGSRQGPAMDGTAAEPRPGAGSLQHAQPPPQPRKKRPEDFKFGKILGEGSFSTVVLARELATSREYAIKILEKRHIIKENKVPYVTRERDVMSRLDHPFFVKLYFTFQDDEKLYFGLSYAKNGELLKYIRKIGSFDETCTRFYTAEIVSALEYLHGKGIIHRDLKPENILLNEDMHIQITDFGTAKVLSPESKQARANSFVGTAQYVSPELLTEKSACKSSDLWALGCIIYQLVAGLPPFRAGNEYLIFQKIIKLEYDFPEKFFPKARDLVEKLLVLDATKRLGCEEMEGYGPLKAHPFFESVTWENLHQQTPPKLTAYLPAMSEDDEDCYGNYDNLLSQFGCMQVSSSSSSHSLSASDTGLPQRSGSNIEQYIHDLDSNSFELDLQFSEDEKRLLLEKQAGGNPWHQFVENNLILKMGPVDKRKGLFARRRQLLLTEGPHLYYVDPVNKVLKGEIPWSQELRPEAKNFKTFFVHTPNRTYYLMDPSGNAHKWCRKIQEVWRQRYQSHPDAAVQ
The experiment in a line: PDK1 kinase inhibition assay (33P phosphorylation of synthetic peptide, filter plate). The class given is biochemical. The conditions noted are these: 0.01 mM ATP, 60 min at 30° C.; read-out: PDK1 IC50. The method, boiled down:
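PDK1 and inhibitor incubated 60 min at 30° C with 0.01 mM ATP plus 33P-γ-ATP, 0.075 mM peptide, 7.5 mM Mg acetate, 0.1 mg/ml BSA in 0.05 M Tris.HCl pH 7.5. Stopped with phosphoric acid; phosphorylated peptide captured on filter plate and counted by scintillation.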

Another assay has as its target T2, GST-Chk1 enzyme (Homo sapiens, UniProt O14757).
T2 sequence (O14757 1-476): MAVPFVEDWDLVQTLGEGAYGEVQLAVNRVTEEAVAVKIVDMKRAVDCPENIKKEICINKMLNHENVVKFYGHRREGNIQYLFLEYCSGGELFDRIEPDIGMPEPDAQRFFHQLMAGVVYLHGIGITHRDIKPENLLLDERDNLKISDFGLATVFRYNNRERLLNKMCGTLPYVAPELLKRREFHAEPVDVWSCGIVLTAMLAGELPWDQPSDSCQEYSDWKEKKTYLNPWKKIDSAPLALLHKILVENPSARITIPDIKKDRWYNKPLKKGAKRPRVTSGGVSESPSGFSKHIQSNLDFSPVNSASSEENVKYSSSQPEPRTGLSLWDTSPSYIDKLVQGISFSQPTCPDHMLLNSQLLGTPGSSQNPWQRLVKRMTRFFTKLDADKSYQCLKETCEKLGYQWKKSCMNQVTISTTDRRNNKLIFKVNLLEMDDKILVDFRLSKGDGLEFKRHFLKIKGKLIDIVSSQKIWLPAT
The experiment in a line: Chk1 kinase inhibition assay (33P phosphorylation of Chktide, filter plate). To be noted: 0.01 mM ATP, 11 nM GST-Chk1, 40 minutes at 30° C.; read-out: Chk1 IC50. It is filed as biochemical. The method, boiled down: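 Inhibitor and enzyme reacted 40 min at 30 °C, then stopped with 50 mM phosphoric acid. Phosphorylated peptide captured on filter plates and quantified by scintillation counting.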

A short description of assay [2]: Cell growth inhibition assay: cytotoxicity by sulforhodamine B (SRB) assay. The conditions noted are these: 96 h; SRB assay, 4 days with drug; cell line not named; read-out: GI50. The class given is cell-based. Here is the method:
B. Cell Growth Inhibition Assay:
• 1) Determine cell number by haemocytometer. • 2) Using an 8 channel multipipettor, add 160 μl of the cell suspension ([…] or 2×10^4 cells/ml) to each well of a 96-well microtitre plate. • 3) Incubate overnight at 37° C. in a CO2 incubator. Day 2 • 4) Stock solutions of drugs are prepared, and serial dilutions of each drug are performed in medium to give final concentrations in wells. • 5) Using a multipipettor, 40 μl of drug (at 5× final concentration) is added to quadruplicate wells. • 6) Control wells are at either side of the 96 well plates, where 40 μl of medium is added. • 7) Incubate plates in CO2 incubator for 4 days Day 6 • 8) Tip off medium into sink and immerse plate slowly into 10% ice cold trichloroacetic acid (TCA). Leave for about 30 mins on ice. • 9) Wash plates three times in tap water by immersing the plates into baths of tap water and tipping it off. • 10) Dry in incubator. • 11) Add 100 μl of 0.4% SRB in 1% acetic acid to each well (except the last row right hand)of the 96 well plate, this is the 0% control, ie no drug, no stain. The first row will be the 100% control with no drug, but with stain). Leave for 5 mins. • 12) Wash off unbound SRB stain with four washes of 1% acetic acid. • 13) Dry plates in incubator. • 14) Solubilise SRB using 100 μl of 10 mM Tris base and put plates on plate shaker for 5 mins. • 15) Determine absorbance at 540 nm using a plate reader. Calculate mean absorbance for quadruplicate wells and express as a percentage of value for control, untreated wells.
Plot % absorbance values versus log drug concentration and determine the IC50.
In general terms: The SRB assay estimates cell density from bound dye.

Take `CSc1cnn2c(Nc3ccc(Oc4cncc(Cl)c4)cc3)cc(N[C@H]3CC[C@H](N)CC3)nc12` [Example 198]: the IC50 in assay [1] worked out at 0.018 µM; at PDK1 enzyme, 4.48 µM; on GST-Chk1 enzyme, 2.08 µM. In addition, the GI50 in assay [2] stood at 0.31 µM.

For the origin of these results see US20070179161A1, “Pyrazolopyrimidine compounds and their use in medicine” (VERNALIS (CAMBRIDGE) LIMITED., priority 2003, published 2007).
